What all share (assay type): cell-based
The target of one data set is recombinant perforin (UniProt P10820). To be noted: read-out: Jurkat IC50; recombinant perforin pre-incubated 30 min with compound; 51Cr-labelled Jurkat cells, 0.1% BSA, 37° C. 4 hours. As for the experimental part:
Inhibition of Perforin-Mediated Lysis of Jurkat Cells
The ability of the compounds to inhibit the lysis of nucleated (Jurkat T lymphoma) cells in the presence of 0.1% BSA, as measured by release of ^51Cr was measured. Jurkat target cells were labelled by incubation in medium with 100 μCi ^51Cr for one hour. The cells were then washed three times to remove unincorporated isotope and re-suspended at 1×10^5 cells per mL in RPMI buffer supplemented with 0.1% BSA. […] The supernatant was collected and assessed for its radioactive content on a gamma counter (Wallac Wizard 1470 automatic gamma counter). Each data point was performed in triplicate and an IC50 was calculated from the range of concentrations described to above.

In data set [1] the test system is KHYG-1 NK cell-mediated lysis of K562 cells. Kind of data set: Inhibition of KHYG-1 NK cell-mediated lysis of K562 cells (51Cr release). The following applies: K562 target cells, Effector:Target 2:1, 4 hours 37° C. As for the experimental part: Inhibition of KHYG-1 NK Cell-Mediated lysis of K562 Cells
KHYG-1 cells were washed and resuspended in RPMI+0.1% BSA at 4×10^5 cells/ml and 50 μl of KHYG-1 cells were dispensed to each well of a 96-well V-bottom, plate. Test compounds were added to KHYG-1 cells at various concentrations up to 20 μM and incubated at RT for 20 minutes. 1×10^6 K562 target cells were labelled with 75 μCi ^51Cr in 200 μl RPMI for 90 mins at 37° C., cells were washed as described above and resuspended in 5 ml RPMI+0.1% BSA. 50 μl of ^51Cr labelled K562 leukemia target cells were added to each well of the KHYG-1 plate (Effector:Target 2:1) and incubated at 37° C. for 4 hours. ^51Cr release was assayed using a Skatron Harvesting Press and radioactivity estimated on a Wallac Wizard 1470 Automatic Gamma counter (Turku, Finland). The percentage of specific cytotoxicity was calculated by the formula: […]
and expressed as the mean of triplicate assays +/−standard error of the mean.

The subject of a further data set is KHYG-1 NK cells. As to the kind of experiment: Toxicity to KHYG-1 NK cells (trypan blue viability). The following applies: viable cells as percentage of total (% viability), 18 to 24 hours. As for the experimental part:
Toxicity to KHYG-1 NK Cells
KHYG-1 cells were washed and resuspended in RPMI+0.1% BSA at 4×10^5 cells/ml and 50 μl of KHYG-1 cells were dispensed to each well of a 96-well V-bottom plate. Test compounds were added to KHYG-1 cells at a concentration of 20 μM and incubated at RT for 20 minutes. 100 μL of RPMI 0.1% BSA was added and the cells were incubated for 4 hours at 37° C. then washed ×3 in RPMI+0.1% BSA. Cells were then resuspended in 200 μl of complete medium and incubated for 18 to 24 hours at 37° C. Trypan blue was added to each well and viable (clear) cells counted as a percentage of total (clear+blue) cell number (% viability).

Sequence of recombinant perforin (P10820 whole entry): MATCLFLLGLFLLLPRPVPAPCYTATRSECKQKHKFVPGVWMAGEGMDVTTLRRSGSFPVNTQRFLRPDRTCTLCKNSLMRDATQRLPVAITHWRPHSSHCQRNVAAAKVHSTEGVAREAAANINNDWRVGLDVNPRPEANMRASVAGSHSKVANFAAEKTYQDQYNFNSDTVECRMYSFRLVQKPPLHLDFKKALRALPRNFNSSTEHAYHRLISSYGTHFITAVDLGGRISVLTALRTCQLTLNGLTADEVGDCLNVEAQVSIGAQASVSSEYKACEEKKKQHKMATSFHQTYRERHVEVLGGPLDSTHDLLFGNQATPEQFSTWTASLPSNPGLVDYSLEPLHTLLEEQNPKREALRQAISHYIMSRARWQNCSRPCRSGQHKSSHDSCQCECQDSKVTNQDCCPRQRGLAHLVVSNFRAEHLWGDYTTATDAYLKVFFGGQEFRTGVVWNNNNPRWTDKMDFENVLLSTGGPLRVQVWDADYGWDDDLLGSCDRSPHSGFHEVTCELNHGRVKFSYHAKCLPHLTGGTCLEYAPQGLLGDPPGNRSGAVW

For the compound `N#Cc1cccc(-c2ccc(/C=C3/NC(=S)NC3=O)s2)c1` [Cmpd 34, (E,Z)-3-(5-((5-Oxo-2-thioxoimidazolidin-4-ylidene)methyl)thiophen-2-yl)benzonitrile], the IC50 (as a rule, the point on the concentration scale where inhibition reaches its midpoint) at recombinant perforin was found to be 9680 nM. For the same compound, the inhibition (in general, how much of the control response was suppressed) at 20 µM in data set [1] was found to be 97%. For the same compound, the “percent viable KHYG-1 cells (trypan blue) at 20 μM” value (“percent viable KHYG-1 cells” below) with KHYG-1 NK cells is given as 99%.
The matching figures for `O=C1NC(=S)N/C1=C/c1ccc(-c2ccc(O)cc2)s1` [Cmpd 35, (E,Z)-5-((5-(4-Hydroxyphenyl)thiophen-2-yl)methylene)-2-thioxoimidazolidin-4-one]: 7720 nM, 90% and 93%.
For `CNC(=O)c1ccc(-c2ccc(/C=C3/NC(=S)NC3=O)s2)cc1` [Cmpd 38, (E,Z)-N-Methyl-4-(5-((5-oxo-2-thioxoimidazolidin-4-ylidene)methyl)thiophen-2-yl)benzamide], the IC50 on recombinant perforin stood at 4530 nM. Besides, at 20 µM the inhibition in data set [1] was 49%. Besides, in the data set with KHYG-1 NK cells, the “percent viable KHYG-1 cells” value was found to be 97%.
As to `CN(C)C(=O)c1ccc(-c2ccc(/C=C3/NC(=S)NC3=O)s2)cc1` [Cmpd 39, (E,Z)-N,N-Dimethyl-4-(5-((5-oxo-2-thioxoimidazolidin-4-ylidene)methyl)thiophen-2-yl)benzamide], the IC50 at recombinant perforin was 6930 nM. Moreover, the inhibition at 20 µM in data set [1] worked out at 89%. In the data set with KHYG-1 NK cells, the “percent viable KHYG-1 cells” value was determined as 95%.
For `O=C1NC(=S)N/C1=C/c1ccc(-c2ccc(C(=O)NCC(O)CO)cc2)s1` (stereo not drawn) [Cmpd 40, (E,Z)-N-(2,3-Dihydroxypropyl)-4-(5-((5-oxo-2-thioxoimidazolidin-4-ylidene)methyl)thiophen-2-yl)benzamide] the same measures were 2440 nM, 47% and 82%.
Consider `CC(O)CNC(=O)c1ccc(-c2ccc(/C=C3/NC(=S)NC3=O)s2)cc1` (stereo not drawn) [Cmpd 41, (E,Z)-N-(2-Hydroxypropyl)-4-(5-((5-oxo-2-thioxoimidazolidin-4-ylidene)methyl)thiophen-2-yl)benzamide], for which, at recombinant perforin, the IC50 came out at 6500 nM. This compound also had an inhibition at 20 µM in data set [1] of 60%. In the data set on KHYG-1 NK cells, the “percent viable KHYG-1 cells” value is reported as 91%.
As for `O=C1NC(=S)N/C1=C/c1ccc(-c2ccc(C(=O)NCCCN3CCOCC3)cc2)s1` [Cmpd 43, (E,Z)-N-(3-Morpholinopropyl)-4-(5-((5-oxo-2-thioxoimidazolidin-4-ylidene)methyl)thiophen-2-yl)benzamide], the IC50 at recombinant perforin was 8130 nM. For the same compound, the inhibition at 20 µM in data set [1] stood at 81%. In the data set with KHYG-1 NK cells, the “percent viable KHYG-1 cells” value is given as 89%.
For `O=C1NC(=S)N/C1=C/c1ccc(-c2ccc3c(c2)CNC3=O)s1` [Cmpd 46, (E,Z)-5-(5-((5-Oxo-2-thioxoimidazolidin-4-ylidene)methyl)thiophen-2-yl)isoindolin-1-one] the same measures were 2550 nM, 70% and 98%.
`O=C1NC(=O)/C(=C\c2ccc(-c3ccc4c(c3)CNC4=O)s2)N1` [Cmpd 47, (E,Z)-5-((5-(1-Oxoisoindolin-5-yl)thiophen-2-yl)methylene)imidazolidine-2,4-dione]: the IC50 on recombinant perforin worked out at 400 nM. In data set [1], this compound registered an inhibition at 20 µM of 73%. In addition, the “percent viable KHYG-1 cells” value in the data set on KHYG-1 NK cells was 92%.
For `O=C1NC(=S)N/C1=C\c1ccc(-c2ccc3c(c2)CNC3=O)cn1` [Cmpd 51, (E,Z)-5-(6((5-Oxo-2-thioxoimidazolidin-4-ylidene)methyl)pyridin-3-yl)isoindolin-1-one] the same measures were 630 nM, 19% and 97%.
The matching figures for `CC(C)N1Cc2cc(-c3ccc(/C=C4/NC(=S)NC4=O)s3)ccc2C1=O` [Cmpd 52, (E,Z)-2-Isopropyl-5-(5-((5-oxo-2-thioxoimidazolidin-4-ylidene)methyl)thiophen-2-yl)isoindolin-1-one]: 4420 nM, 77% and 92%.
The matching figures for `CCN1Cc2cc(-c3ccc(/C=C4/NC(=S)NC4=O)s3)ccc2C1=O` [Cmpd 62, (E,Z)-2-Ethyl-5-(5-((5-oxo-2-thioxoimidazolidin-4-ylidene)methyl)thiophen-2-yl)isoindolin-1-one]: 600 nM, 84% and 79%.
Consider `CCCN1Cc2cc(-c3ccc(/C=C4/NC(=S)NC4=O)s3)ccc2C1=O` [Cmpd 63, (E,Z)-5-(5-((5-Oxo-2-thioxoimidazolidin-4-ylidene)methyl)thiophen-2-yl)-2-propylisoindolin-1-one], for which the IC50 on recombinant perforin is 1520 nM. The compound further showed an inhibition at 20 µM in data set [1] of 95%. Moreover, the “percent viable KHYG-1 cells” value in the data set on KHYG-1 NK cells is reported as 94%.
The matching figures for `CCCCN1Cc2cc(-c3ccc(/C=C4/NC(=S)NC4=O)s3)ccc2C1=O` [Cmpd 64, (E,Z)-2-Butyl-5-(5-((5-oxo-2-thioxoimidazolidin-4-ylidene)methyl)thiophen-2-yl)isoindolin-1-one]: 990 nM, 96% and 94%.
The matching figures for `CCOC(=O)N1Cc2cc(-c3ccc(/C=C4/NC(=S)NC4=O)s3)ccc2C1=O` [Cmpd 65, (E,Z)-Ethyl 1-oxo-5-(5-((5-oxo-2-thioxoimidazolidin-4-ylidene)methyl)thiophen-2-yl)isoindoline-2-carboxylate]: 990 nM, 72% and 96%.
The matching figures for `CC(=O)N1Cc2cc(-c3ccc(/C=C4/NC(=S)NC4=O)s3)ccc2C1=O` [Cmpd 66, (E,Z)-2-Acetyl-5-(5-((5-oxo-2-thioxoimidazolidin-4-ylidene)methyl)thiophen-2-yl)isoindolin-1-one]: 930 nM, 49% and 85%.
Take `CC(=O)OCCN1Cc2cc(-c3ccc(/C=C4/NC(=S)NC4=O)s3)ccc2C1=O` [Cmpd 68, (E,Z)-2-(1-Oxo-5-(5-((5-oxo-2-thioxoimidazolidin-4-ylidene)methyl)thiophen-2-yl)isoindolin-2-yl)ethyl acetate]: the IC50 at recombinant perforin came out at 1170 nM. The same compound showed an inhibition at 20 µM in data set [1] of 86%. Also, the “percent viable KHYG-1 cells” value with KHYG-1 NK cells is 84%.
For `CC1c2cc(-c3ccc(/C=C4/NC(=S)NC4=O)s3)ccc2C(=O)N1C` (stereo not drawn) [Cmpd 69, (E,Z)-2,3-Dimethyl-5-(5-((5-oxo-2-thioxoimidazolidin-4-ylidene)methyl)thiophen-2-yl)isoindolin-1-one] the same measures were 3210 nM, 100% and 95%.
Take `O=C1NC(=S)N/C1=C/c1ccc(-c2ccc3c(c2)CN(CCO)C3=O)s1` [Cmpd 70, (E,Z)-2-(2-Hydroxyethyl)-5-(5-((5-oxo-2-thioxoimidazolidin-4-ylidene)methyl)thiophen-2-yl)isoindolin-1-one]: the IC50 on recombinant perforin is 780 nM. This compound also yielded an inhibition at 20 µM in data set [1] of 38%. Further, the “percent viable KHYG-1 cells” value in the data set with KHYG-1 NK cells is reported as 77%.

The values are drawn from patent US20130065897A1, “COMPOUNDS, PREPARATION AND USES THEREOF” (PETER MACCALLUM CANCER INSTITUTE, priority 2009, published 2013).
